From patent US20180243421A1, “IMMUNOSTIMULATING AGENT” (AJINOMOTO CO., INC., priority 2015, published 2018)

Key:
[1] = test system: anti-OVA-specific IgE antibody; settings: mouse, in vivo
Experimental: The serum sample obtained in Example 1 was measured for an anti-OVA-specific IgE antibody. The measurement method of the anti-OVA-specific IgE antibody in Example 3 and Examples 6, 9 is as follows.
Measurement Method of anti-OVA-specific IgE Antibody
DS mouse IgE ELISA (OVA) kit manufactured by DS Pharma Biomedical Co., Ltd. was used. The protocol is briefly shown below.
The serum sample and a standard reagent for drawing an analytical curve are diluted with a buffer and, after stirring, left standing at room temperature for 10 min. The sample and the standard solution are added to a plate bound with an IgE capture antibody in advance and, after stirring, the mixture is left standing at room temperature for 60 min. The mixture is washed three times with wash, HRP-labeled OVA is added, and the mixture is left standing at room temperature for 30 min. The mixture is washed three times with wash, a substrate solution is added, and the mixture is left standing in dark at room temperature for 30 min. A reaction quenching liquid is added, the mixture is stirred, and the absorbance (OD Value=450 nm) is immediately measured.
This test was performed in the same manner as in Example 3 except that N^2-hexadecanoyl-L-arginine (SZ61), N-hexadecanoylagmatine (SZ62), N^2-hexadecanoyl-L-arginine methyl ester hydrochloride (SZ63), N^2-octadecanoyl-L-glutamine tert-butyl ester (SZ64), and N^2-octadecanoyl-L-glutamine (SZ65) were used.
This test was performed in the same manner as in Example 6 except that N-hexadecanoylagmatine (SZ62), N^2-octadecanoyl-L-glutamine tert-butyl ester (SZ64), N-docosanoyl-L-leucine methyl ester (SZ70), and N-docosanoyl-L-phenylalanine methyl ester (SZ71) were used and a positive control adjuvant Addavax™ (InvivoGen) administration group was formed.
The allergy inducing activity test was performed in the same manner as in Example 3 except that Addavax™, N-(2-octadecyleicosanoyl)-L-leucine methyl ester (SZ86), N-hexadecanoyl-L-leucinamide (SZ90), N^2-hexadecanoyl-N^1,N^1-diethyl-L-leucinamide (SZ92), N^2-hexadecanoyl-L-arginine hexyl ester hydrochloride (SZ99) and N^2-docosanoyl-N^1,N^1-diethyl-L-glutamic acid 1-amide (SZ106) were used.
The allergy inducing activity test was performed in the same manner as in Example 3 except that Addavax™, N-(2-octadecyleicosanoyl)-L-leucine methyl ester (SZ86), N-hexadecanoyl-L-leucinamide (SZ90), N^2-hexadecanoyl-N^1,N^1-diethyl-L-leucinamide (SZ92), N-hexadecanoyl-L-leucine hexyl ester (SZ97), N^2-docosanoyl-N^1,N^1-diethyl-L-glutamic acid 1-amide (SZ106) and N-docosanoylagmatine hydrochloride (SZ108) were used.
8-Week-old female BALB/c mice were divided into groups (N=6), and each group was primarily immunized by dorsal-subcutaneous administration of (1) ovalbumin (OVA) (5 μg) dissolved in saline as an antigen (OVA single administration group), (2) OVA (10 μg) and aluminum hydroxide salt dissolved in saline (Alum administration group), (3) OVA 10 μg and Addavax™ (mixed with saline at 1:1) dissolved in saline (Addavax™ administration group), (4) OVA 10 μg and CpG 5 μg dissolved in saline (CpG administration group), (5) OVA 10 μg and MPL 5 μg dissolved in saline (MPL administration group), (6) OVA (5 μg) and SZ62 (0.256 μmol) dissolved or dispersed in 5% αCD-added saline (SZ62 administration group), (7) OVA (5 μg), SZ62 (0.256 μmol) and CpG 5 μg dissolved or dispersed in 5% αCD-added saline (SZ62+CpG administration group), (8) OVA 10 μg, Addavax™ (mixed with saline at 1:1) and CpG 5 μg dissolved in saline (Addavax™+CpG administration group), (9) OVA (5 μg), SZ62 (0.256 μmol) and MPL 5 μg dissolved or dispersed in 5% αCD-added saline (SZ62+MPL administration group), (10) OVA (10 μg), aluminum hydroxide salt (Alum) and MPL 5 μg dissolved in saline (Alum+MPL administration group), each per mouse. One week later, the secondary immunization was carried out by dorsal-subcutaneous administration of solutions or dispersions similar to those of the above-mentioned (1) to (10) again.

[2] = test system: anti-OVA-specific IgG1 subclass antibody; test: Adjuvant activity: anti-OVA-specific IgG1 subclass antibody in serum after secondary immunization (Examples 1, 5, 7, 8; ELISA absorbance); assay type: in vivo, BALB/c mice
Experimental: Two weeks from the secondary immunization, the whole blood was extracted under anesthesia, and the obtained serum sample was measured for anti-OVA-specific IgG1 subclass antibody.
A method for measurement of the anti-OVA-specific IgG1 subclass antibody in Example 1, and the following Examples 5, 7 and 8 is as follows.
Measurement Method of anti-OVA-specific IgG1 Subclass Antibody
To a 96 well plate was added 5 μg/ml OVA at 100 μl/well, and the mixture was incubated at 4° C. overnight. After incubation, the mixture was washed three times with 200 μl of PBS-T (PBS+0.05%(v/v) Tween 20) per well, and blocked with 100 μl of 5% FCS/PBS solution per well at room temperature for 1 to 2 hr. Thereafter, the mixture was washed three times with PBS-T (200 μl/well), a diluted serum sample (100 μl/well) or the same amount of 5% FCS/PBS solution as a control was added, and the mixture was incubated at 37° C. for 1 hr. Thereafter, the mixture was washed five times with PBS-T (200 μl/well), a diluted biotinylated anti-mouse IgG1 antibody (100 μl/well) was added, and the mixture was incubated at 37° C. for 45 min. Thereafter, the mixture was washed five times with PBS-T (200 μl/well), a diluted anti-biotin-HRP antibody was added (100 μl/well), and the mixture was incubated at 37° C. for another 30 min. Thereafter, the mixture was washed five times with PBS-T (200 μl/well), TMB substrate solution was added (100 μl/well), and the mixture was incubated at room temperature for 10 to 15 min. Thereafter, a reaction quenching liquid (2N sulfuric acid solution) was added (50 μl/well) to discontinue a color developing reaction, and the absorbance (OD Value=450 nm) was measured by a microplate reader.

[3] = Example 5, same manner as Example 1
[4] = Example 8, same manner as Example 7
[5] = Example 7, same manner as Example 1, plus Addavax group

Row | Compound | adjuvant activity (IgG1) compared with Alum ([2]; Example 8) | anti-OVA-specific IgG1 subclass antibody production as compared to the OVA single administration group [2, 4] | adjuvant activity (IgG1) compared with Alum ([2]; Example 7) | anti-OVA-specific IgG1 subclass antibody production as compared to the OVA single administration group [2, 5] | further results
1 | CCCCCCCCCCCCCCCC(=O)N[C@@H](CCCNC(=N)N)C(=O)O [SZ61, N^2-hexadecanoyl-L-arginine] | – | – | – | – | allergy inducing activity as compared to aluminum hydroxide gel adjuvant [1]: lower allergy inducing activity; anti-OVA-specific IgE antibody production as compared to the OVA single administration group [1]: a significant increase in the anti-OVA-specific IgE antibody production was not observed
2 | CCCCCCCCCCCCCCCC(=O)N[C@@H](CCCNC(=N)N)C(=O)OC.Cl [SZ63, N^2-hexadecanoyl-L-arginine methyl ester hydrochloride] | equivalent to or not less than that of Alum | significantly increased | – | – | allergy inducing activity as compared to aluminum hydroxide gel adjuvant [1]: lower allergy inducing activity; anti-OVA-specific IgE antibody production as compared to the OVA single administration group [1]: a significant increase in the anti-OVA-specific IgE antibody production was not observed; adjuvant activity (IgG1) compared with Alum ([2]; Example 5): equivalent to or not less than that of Alum; anti-OVA-specific IgG1 subclass antibody production as compared to the OVA single administration group [2, 3]: significantly increased
3 | CCCCCCCCCCCCCCCCCC(=O)N[C@@H](CCC(N)=O)C(=O)OC(C)(C)C [SZ64, N^2-octadecanoyl-L-glutamine tert-butyl ester] | equivalent to or not less than that of Alum | significantly increased | – | – | allergy inducing activity as compared to aluminum hydroxide gel adjuvant [1]: lower allergy inducing activity; allergy inducing activity as compared to aluminum hydroxide gel adjuvant and Addavax [1]: lower allergy inducing activity; anti-OVA-specific IgE antibody production as compared to the OVA single administration group [1]: a significant increase in the anti-OVA-specific IgE antibody production was not observed; adjuvant activity (IgG1) compared with Alum ([2]; Example 5): equivalent to or not less than that of Alum; anti-OVA-specific IgG1 subclass antibody production as compared to the OVA single administration group [2, 3]: significantly increased
4 | CCCCCCCCCCCCCCCCCCCCCC(=O)NCC(=O)OC [SZ69, N-docosanoyl glycine methyl ester] | – | – | equivalent to or not less than that of Alum | significantly increased | –
5 | CCCCCCCCCCCCCCCCCCCCCC(=O)N[C@@H](CCC(=O)O)C(=O)OC [SZ72, N-docosanoyl-L-glutamic acid 1-methyl ester] | – | – | equivalent to or not less than that of Alum | significantly increased | –
6 | CCCCCCCCCCCCCCCCCCCCCC(=O)N[C@@H](CCCCN)C(=O)OC.O=C(O)C(F)(F)F [SZ73, N^2-docosanoyl-L-lysine methyl ester trifluoroacetic acid salt] | – | – | equivalent to or not less than that of Alum | significantly increased | –
7 | CCCCCCCCCCCCCCCCCCCCCC(=O)N[C@H](C(=O)OC)[C@@H](C)CC [SZ76, N-docosanoyl-L-isoleucine methyl ester] | – | – | equivalent to or not less than that of Alum | significantly increased | –
8 | CCCCCCCCCCCCCCCCCCCCCC(=O)N[C@H](C(=O)OC)C(C)C [SZ77, N-docosanoyl-L-valine methyl ester] | – | – | equivalent to or not less than that of Alum | significantly increased | –
9 | CCCCCCCCCCCCCCCC(=O)NCC(=O)OC [SZ78, N-hexadecanoyl glycine methyl ester] | equivalent to or not less than that of Alum | a significant difference was not found | – | – | anti-OVA-specific IgG1 subclass antibody production compared with Alum ([2]; Example 8): equivalent to that of Alum
10 | CCCCCCCCCCCCCCCC(=O)N[C@@H](CC(C)C)C(=O)OC [SZ79, N-hexadecanoyl-L-leucine methyl ester] | equivalent to or not less than that of Alum | a significant difference was not found | – | – | anti-OVA-specific IgG1 subclass antibody production compared with Alum ([2]; Example 8): equivalent to that of Alum
11 | CCCCCCCCCCCCCCCC(=O)N[C@@H](Cc1ccccc1)C(=O)OC [SZ80, N-hexadecanoyl-L-phenylalanine methyl ester] | equivalent to or not less than that of Alum | significantly increased | – | – | –
12 | CCCCCCCCCCCCCCCC(=O)N[C@@H](CCCCN)C(=O)OC.O=C(O)C(F)(F)F [SZ81, N^2-hexadecanoyl-L-lysine methyl ester trifluoroacetic acid salt] | equivalent to or not less than that of Alum | a significant difference was not found | – | – | anti-OVA-specific IgG1 subclass antibody production compared with Alum ([2]; Example 8): equivalent to that of Alum
13 | CCCCCCCCCCCCCCCC(=O)N[C@@H](CCC(=O)O)C(=O)OC [SZ82, N-hexadecanoyl-L-glutamic acid 1-methyl ester] | equivalent to or not less than that of Alum | significantly increased | – | – | –
14 | Alum [reference compound] | – | – | – | – | anti-OVA-specific IgE antibody production as compared to the OVA single administration group [1]: significantly increased
